Here are results for 120 molecules from a melting point compilation (Tetko et al.).

The structures appear in SMILES notation.

The melting point is the temperature of the solid-liquid transition. For the molecule `Cc1cc(C=O)c(C)n1CCN1CCOCC1`, the melting point was in the range of 79 to 81 °C.

Turning to `COc1ccc(-c2csc(NC(=O)CCl)n2)c(OC)c1`, the melting point lay in the range of 109 to 111 °C. The same measure for `O=[N+]([O-])c1ccc(C2NCCS2)cc1` (stereo not given): 124 to 126 °C. Take `ON=Cc1cnc2ccccn12`: the melting point was 183 to 185 °C.

In turn, `Cc1[nH]c2ccnn2c(=O)c1CC(=O)O` showed a melting point of 293 to 295 °C. In turn, `COc1cc(C(=O)N2CCCC(C(=O)O)C2)cc(OC)c1OC` (stereo not given) displayed a melting point of 189 to 191 °C.

In turn, `Cc1ccc(-c2nn(-c3ccccc3Cl)cc2C(=O)O)cc1` returned a melting point of 257 to 259 °C. The same measure for `Cn1ccnc1C(=O)c1ccco1`: 34 to 36 °C; for `O=C(O)COc1cccc(C(F)(F)F)c1`: 85 to 87 °C; for `Nc1nc2ccc(S(N)(=O)=O)cc2s1`: 259 to 261 °C. As for `O=C(O)C(c1ccccc1F)N1CCOCC1` (stereo not given), the figure is 189 to 191 °C. `CCSc1ccc(Cl)cc1C(=O)O` showed a melting point of 154 to 156 °C.

`NC(=S)NCCc1ccccn1` had a melting point of 94 to 98 °C. The molecule `O=C(Nc1cccc2ccccc12)OCC(F)(F)F` showed a melting point of 109 to 111 °C. The molecule `N#Cc1nnc2ccccc2c1N` came in with a melting point of 319 to 321 °C.

As to `CC(C)(C)OC(=O)NN1CC(C(=O)O)CC1=O` (stereo not given), the melting point is 169 to 171 °C.

For the molecule `Nc1cc(-c2ccco2)ccc1F`, the melting point lay in the range of 40 to 42 °C.

Regarding `CC(=O)c1ccccc1NS(=O)(=O)c1cccs1`, the melting point was 150 to 152 °C. The same measure for `Cc1ccccc1C(=O)NC(CC(C)C)C(=O)O` (stereo not given): 111 to 113 °C.

Take `Nc1cnncc1Cl`: the melting point was 79 to 81 °C. In the case of `NNc1ccc(S(=O)(=O)NC2CC2)cc1`, the melting point lay in the range of 134 to 136 °C. For the molecule `Cc1ccc(-c2nnc(N)o2)s1`, the melting point lay within 247 to 249 °C.

`N#Cc1ccc(C(Cl)C(N)=O)cc1` (stereo not given) yielded a melting point of 114 to 116 °C. The same measure for `COc1ccc(-c2cc(C(=O)NN)c3ccccc3n2)cc1OC`: 181 to 183 °C; for `O=c1[nH]c2ccc(NCc3cccc(Cl)c3)cc2[nH]1`: 217 to 219 °C. The same measure for `CCC(=O)c1ccc(OC)c(OC)c1`: 61 to 63 °C. For `N#Cc1ccccc1Sc1ccc(C(=O)O)cc1`, the melting point lay within 182 to 184 °C.

In the case of `CC(=O)N1CCCNc2ccccc21`, the melting point is 132 to 134 °C. `CC(C)NS(=O)(=O)c1ccc(NN)nc1` yielded a melting point of 141 to 143 °C. On to `COc1cc2nc(N3CCN(C(=O)C4COc5ccccc5O4)CC3)nc(N)c2cc1OC` (stereo not given), for which the melting point was in the range of 279 to 281 °C. In turn, `Nc1cccc(OCc2ccc(Cl)cc2)c1` came in with a melting point of 87 to 89 °C. As for `CC1CNc2c(cccc2S(N)(=O)=O)C1` (stereo not given), the figure is 162 to 164 °C. `CC(CC(=O)O)C(=O)c1cccc(F)c1` (stereo not given) returned a melting point of 59 to 61 °C. As for `COC(=O)c1ccc(S(N)(=O)=O)cc1Cl`, the figure is 124 to 126 °C; as for `CCOC(=O)/C(C#N)=C\Nc1ccc(OC(F)F)cc1`, 101 to 103 °C; as for `CC(C(=O)O)c1ccc(Br)s1` (stereo not given), 55 to 57 °C. The same measure for `Cc1ccccc1-n1c(Cl)nc2ccccc2c1=O`: 298 to 300 °C; for `CC1=CC(=O)N(c2ccccc2F)C1=O`: 83 to 85 °C; for `O=Cc1cc(-n2ccnc2)cs1`: 123 to 125 °C. As for `Cn1nnc(C(=O)O)c1C(F)(F)F`, the figure is 114 to 116 °C; as for `CNc1cc(C#N)c2ccccc2n1`, 166 to 168 °C. On to `O=C(O)c1ccc2c(c1)NC(=O)C1CCCN21` (stereo not given), for which the melting point fell in the range of 250 to 252 °C. As for `Nc1nnc(-c2ccc(F)cc2)[nH]1`, the figure is 223 to 227 °C; as for `O=C(NC(Cc1ccccc1)C(=O)O)c1ccc(Cl)cc1` (stereo not given), 195 to 197 °C; as for `Cc1ccccc1-n1nc(C(=O)O)c2c1CCC2`, 205 to 207 °C. The same measure for `N#Cc1cc(Cl)ccc1N=C=O`: 71 to 75 °C; for `COc1ccc(Cl)cc1-c1nnc(N)o1`: 201 to 203 °C.

Molecule `CCN1CCCC1CNS(=O)(=O)c1ccc(N)cc1` (stereo not given) gave a melting point of 101 to 103 °C.

As for `COc1ccccc1NC(=O)CC(N)=S`, the melting point was 146 to 148 °C.

Consider `CCCNC(=O)c1ccc(Cl)cc1[N+](=O)[O-]`, for which the melting point fell in the range of 107 to 109 °C. The same measure for `N#Cc1sc2ccccc2c1N`: 155 to 157 °C; for `O=C1CSC(NC2CCCC2)=N1`: 110 to 112 °C. Consider `O=c1[nH]c2cc(Cl)ccc2c(=O)o1`, for which the melting point lay in the range of 250 to 252 °C.

`NC(c1ccccc1)c1ccncc1` (stereo not given) gave a melting point of 40 to 42 °C. As for `COc1cc(C#N)ccc1OCC1CCCO1` (stereo not given), the figure is 86 to 88 °C; as for `CCOC(=O)c1c(C)[nH]c(C(=O)CCl)c1C`, 188 to 190 °C; as for `O=CN1CCN(C(=NS(=O)(=O)c2ccccc2)C(F)(F)F)CC1`, 114 to 116 °C. As for `CCc1nc(C(=O)O)nn1-c1ccccc1`, the figure is 145 to 147 °C. As to `O=c1[nH]cnc2nc(NCc3ccco3)sc12`, the melting point lay in the range of 279 to 281 °C. As for `Nc1ccc(C(=O)N2CC(=O)Nc3ccccc32)cc1`, the figure is 286 to 288 °C; as for `Cc1ccc(C(=O)CC#N)cc1F`, 82 to 84 °C. As for `O=C1NC(=O)N(c2ccccc2)C1=O`, the figure is 213 to 215 °C. The molecule `CC(Oc1ccc(F)cc1Cl)C(=O)O` (stereo not given) showed a melting point of 72 to 74 °C. Regarding `COc1ccc(C(C)=O)cc1CN1CCOCC1`, the melting point was in the range of 58 to 60 °C. As for `COC(=O)c1c(O)c(Cl)cc(Cl)c1Cl`, the figure is 113 to 115 °C; as for `Cc1cc(C(=O)O)nn1-c1ccc(Cl)c(Cl)c1`, 219 to 221 °C; as for `COCCNS(=O)(=O)c1ccc(C)c(C(=O)O)c1`, 137 to 139 °C. As for `Cc1oc(C(=O)O)cc1S(N)(=O)=O`, the melting point lay in the range of 225 to 227 °C. As for `O=C(O)c1cccc(CS(=O)(=O)c2ccccc2)c1`, the figure is 194 to 196 °C. In the case of `O=C(O)CNCc1c(F)cccc1Cl`, the melting point is 184 to 186 °C.

The molecule `O=C(O)C1CCCN1C(=O)Cc1cn2ccsc2n1` (stereo not given) returned a melting point of 121 to 123 °C.

`Cc1ccc(N)cc1-n1cnnn1`: the melting point lay in the range of 113 to 115 °C. The same measure for `CCOc1ccc(Cl)c(C(=O)O)n1`: 127 to 129 °C; for `Cc1ccc(CNC(=O)C(C#N)=CN(C)C)cc1`: 135 to 137 °C; for `CCCCn1c(N)cc(=O)n(C)c1=O`: 92 to 94 °C. As for `CCCS(=O)(=O)Nc1cccc(N)c1C`, the figure is 99 to 101 °C. The same measure for `O=C(CCl)Nc1sc2c(c1C(=O)c1ccccc1)CCCC2`: 110 to 112 °C; for `O=C(CCl)NC1CCOCC1`: 82 to 84 °C; for `CC(C)(C)OC(=O)N1CCC(OCC(=O)O)CC1`: 102 to 104 °C. `CC(C)(C)OC(=O)NC(C)(C)C(C)(C)C(=O)O` showed a melting point of 125 to 127 °C. The same measure for `COc1ccc(-c2cc(C(=O)O)sc2C)cc1`: 186 to 188 °C. As for `Nc1cc(CC2CC3CCC2C3)no1` (stereo not given), the figure is 86 to 88 °C; as for `COc1ccc2nc(C)nc(Cl)c2c1`, 119 to 121 °C.

In the case of `O=C(c1ccc(Cl)cc1Cl)N1CCNCC1`, the melting point is 108 to 110 °C. For the molecule `Cc1cc(=O)[nH]c(-c2ncccn2)n1`, the melting point was 172 to 174 °C. As to `Fc1ccccc1Cc1nnc(S)o1`, the melting point fell in the range of 134 to 136 °C. On to `NC(=NO)c1cccnc1N1CCCCC1`, for which the melting point fell in the range of 149 to 151 °C.

With `CC(C)(O)c1ccc(Br)cc1`, the melting point lay within 42 to 44 °C. The molecule `NNc1c(F)cc(F)cc1Cl` registered a melting point of 87 to 89 °C.

In the case of `N#Cc1c[nH]c(C(=O)C(Cl)(Cl)Cl)c1`, the melting point fell in the range of 134 to 136 °C.

In turn, `Brc1ccc(NCc2cccs2)cc1` showed a melting point of 49 to 51 °C. The same measure for `O=C1NCC2(CCCCC2)O1`: 96 to 98 °C; for `Nc1ccc(NC(=O)c2ccccc2)cc1C(F)(F)F`: 130 to 132 °C. As for `Cc1ccc(=O)n(CC(=O)O)n1`, the figure is 249 to 251 °C; as for `Cc1nnc2c(Cl)nccn12`, 212 to 214 °C; as for `Oc1ccccc1-c1nnc2n1CCCCC2`, 271 to 273 °C. On to `O=S(=O)(Cl)c1cncc(F)c1`, for which the melting point is 35 to 37 °C. The same measure for `N#Cc1nc(C2CC2)oc1N1CCNCC1`: 99 to 101 °C; for `Cc1ccc(N(CCC#N)C(=O)CCl)cc1`: 56 to 58 °C. As for `O=C(Nc1ccccc1)NC1CCNCC1`, the figure is 169 to 171 °C; as for `NC(=O)C1CCN(CC(=O)c2ccc(Cl)cc2)CC1`, 164 to 166 °C.

In turn, `NNC(=O)c1cc(-c2ccccc2)on1` displayed a melting point of 125 to 127 °C. Molecule `CC(C)N(O)C(=O)C(=O)O` yielded a melting point of 99 to 101 °C. `COc1cccc(NC(=O)CNc2ccccc2)c1` registered a melting point of 205 to 207 °C.

In turn, `O=C(O)c1ccc(OCC(=O)C2CC2)cc1` registered a melting point of 157 to 159 °C. As for `CCC(=CC(=O)O)c1cccc(Cl)c1`, the melting point lay in the range of 79 to 81 °C. Consider `O=C(O)c1cccc(CO)c1`, for which the melting point was 111 to 113 °C.

`NS(=O)(=O)c1cccc(NC(=O)c2ccc(C(=O)O)s2)c1` yielded a melting point of 308 to 310 °C. In turn, `Cc1cc(N)n(-c2ccncc2)n1` gave a melting point of 96 to 98 °C. Take `Nc1nc(CN2CCNCC2)nc2ccccc12`: the melting point was 213 to 215 °C.

On to `OCc1cn(-c2cccc(Cl)c2Cl)nn1`, for which the melting point lay in the range of 105 to 107 °C.

As to `O=C(O)Cn1[nH]c(=O)c2ccccc2c1=O`, the melting point fell in the range of 272 to 274 °C. The same measure for `CC(=O)NCC1CCNCC1`: 97 to 99 °C; for `FC(F)(F)c1cc(Cl)ccc1-n1nnnc1CCl`: 101 to 103 °C. `CCS(=O)(=O)Nc1ccc(N)cc1C` displayed a melting point of 101 to 103 °C. As for `NCC(O)COc1ccc2c(c1)CCC(=O)N2` (stereo not given), the figure is 103 to 105 °C; as for `CC(C)NC(=O)NCc1ccc(C(=O)O)cc1`, 168 to 170 °C; as for `Cc1nn(-c2ccccc2)c(C(F)(F)F)c1C(=O)O`, 146 to 148 °C. The same measure for `CCC(C#N)(CC)NC(=O)OC(C)(C)C`: 98 to 100 °C. On to `CCOC(=O)COc1cccc(Br)c1`, for which the melting point lay within 40 to 42 °C.
